From patent US7351744B2, “Naphthalene derivatives as termite repellents and toxicants” (Board of Supervisors of Louisiana State University and …, priority 2003, dated 2008)

Assays:
[1] = tested on: C. formosanus workers and soldiers; experiment: Treated filter paper as the sole food source; type: in vivo, Coptotermes formosanus; details: for Percent survival: colonies C and WB combined
Method: To assay the effect of 2′-acetonaphthone on termites when added to a sole food source, acute and cumulative toxicities of 2′-acetonaphthone-treated filter paper (Whatman #2) and balsa wood (Ochroma lagopus Swartz) slices (2.3 cm×4.0 cm) were evaluated. Seven concentrations (0, 1, 10, 50, 100, 500, and 1000 mg/l) were prepared in 100 ml ethanol. Six filter papers and six wood slices were soaked in each concentration for 4 h; control filter papers and wood slices were soaked only in ethanol. After treatment, the food sources were kept overnight at ambient conditions for solvent evaporation. Eighty-four plastic containers (5.5 cm diameter×3.7 cm height) were provided with 22 g of wetted sand (20 g sand (fine blasting sand #4, Cement Products Inc., Baton Rouge, La.) mixed with 2 ml DDH2O). Then either a filter paper or a wood slice was separately placed to fit on the surface of the wetted sand and wetted with DDH2O (250 μl). Into each container, fifty workers and 20 soldiers were placed on the surface of the filter paper or wood slice. For each concentration and food sourse, three replicates received termites from colony C, and three replicates received termites from colony WB. The containers were covered and incubated for 10 days at 27.4° C. and 70% RH. Containers were monitored everytwo days to ensure suitable moisture. On days 1, 5 and 10, the number of living workers and soldiers were counted. An average percent survival was calculated for each treatment. (See Tables 2 and 3).

[2] = tested on: C. formosanus workers; experiment: Treated sand when untreated sand is an alternative; type: in vivo, Coptotermes formosanus; details: for Survival (mean % ± SE) day 12: Colony WB; for Survival (mean % ± SE) day 12 / Survival (% ± SE) day 12: treated and untreated sand; for Survival (% ± SE) day 12: Colony E
Method: To further test the repellency of 2′-acetonaphthone, the three-chambered transparent plastic containers described in Example 5 were used. Sand was treated, allowed to dry from the solvent, and wetted with DDH2O as described in Example 5. Treated sand was placed in one of the side chambers, and the other side chamber received an equal amount of untreated sand. The concentrations of 2′-acetonaphthone used were 4.16, 8.33, 16.67, 33.33 and 66.67 mg/kg sand. Each concentration and the control had five replicate containers. Weighed balsa wood slices (0.159 cm×3.5 cm×6.0 cm each) were placed on the surface of both treated and untreated sand, and were wetted with 1 ml of DDH2O. Termites (200 workers and 20 soldiers) from colony WB were released in the middle chamber. On days 2, 3, 4 and 7, the bottom of each container was scanned, and tunnel areas measured as above. On day 12, the number of living termites in each container was recorded. The wood slices were then cleaned, dried and re-weighed to calculate food consumption.
The above experiment was repeated with new concentrations of 2′-acetonaphthone: 8.75, 17.5, 35, 70 and 140 mg/kg sand. Termites from colony E were tested, and the food source was changed to filter paper. Tunnels were scanned and measured on days 2, 5, 8 and 12. The data were analyzed as described in Example 5, and paired t-tests were used to compare tunneling and feeding activities between treated and untreated sides.

In the case of `CC(=O)c1ccc2ccccc2c1` [2′-acetonaphthone], the Percent survival ([1]; filter paper 1 mg/l, Day 1, Soldier) is reported as 84.17 ± 9.26 a %, the Percent survival ([1]; filter paper 1 mg/l, Day 1, Worker) is reported as 87.67 ± 5.83 a % and the Percent survival ([1]; filter paper 1 mg/l, Day 5, Soldier) is reported as 58.33 ± 10.14 a %. For the same compound, the Percent survival ([1]; filter paper 1 mg/l, Day 5, Worker) was 73.0 ± 8.24 a %, the Percent survival ([1]; filter paper 1 mg/l, Day 10, Soldier) was 60.83 ± 13.07 a % and the Percent survival ([1]; filter paper 1 mg/l, Day 10, Worker) was 55.67 ± 8.98 a %. For the same compound, the Percent survival ([1]; filter paper 10 mg/l, Day 1, Soldier) was 80.0 ± 9.49 a %, the Percent survival ([1]; filter paper 10 mg/l, Day 1, Worker) was 84.0 ± 4.95 a % and the Percent survival ([1]; filter paper 10 mg/l, Day 5, Soldier) was 56.67 ± 12.49 a %. For the same compound, the Percent survival ([1]; filter paper 10 mg/l, Day 5, Worker) was 66.67 ± 9.71 ab %, the Percent survival ([1]; filter paper 10 mg/l, Day 10, Soldier) was 50.0 ± 12.91 a % and the Percent survival ([1]; filter paper 10 mg/l, Day 10, Worker) was 53.67 ± 12.92 a %. It also gave a Percent survival ([1]; filter paper 50 mg/l, Day 1, Soldier) of 72.50 ± 11.46 a %, a Percent survival ([1]; filter paper 50 mg/l, Day 1, Worker) of 80.33 ± 9.76 a % and a Percent survival ([1]; filter paper 50 mg/l, Day 5, Soldier) of 42.50 ± 9.56 a %. The Percent survival ([1]; filter paper 50 mg/l, Day 5, Worker) was 68.33 ± 11.56 ab %, the Percent survival ([1]; filter paper 50 mg/l, Day 10, Soldier) was 35.83 ± 8.41 a % and the Percent survival ([1]; filter paper 50 mg/l, Day 10, Worker) was 55.0 ± 12.07 a %. It also gave a Percent survival ([1]; filter paper 100 mg/l, Day 1, Soldier) of 73.33 ± 5.87 a %, a Percent survival ([1]; filter paper 100 mg/l, Day 1, Worker) of 80.0 ± 6.68 a % and a Percent survival ([1]; filter paper 100 mg/l, Day 5, Soldier) of 33.33 ± 11.53 a %. It also gave a Percent survival ([1]; filter paper 100 mg/l, Day 5, Worker) of 48.33 ± 10.33 b %, a Percent survival ([1]; filter paper 100 mg/l, Day 10, Soldier) of 17.50 ± 5.74 b % and a Percent survival ([1]; filter paper 100 mg/l, Day 10, Worker) of 40.67 ± 9.98 a %. For the same compound, the Percent survival ([1]; filter paper 500 mg/l, Day 1, Soldier) was 14.17 ± 5.23 b %, the Percent survival ([1]; filter paper 500 mg/l, Day 1, Worker) was 18.33 ± 6.60 b % and the Percent survival ([1]; filter paper 500 mg/l, Day 5, Soldier) was 0.0 ± 0.0 b %. The Percent survival ([1]; filter paper 500 mg/l, Day 5, Worker) was 0.0 ± 0.0 c %, the Percent survival ([1]; filter paper 500 mg/l, Day 10, Soldier) was 0.0 ± 0.0 c % and the Percent survival ([1]; filter paper 500 mg/l, Day 10, Worker) was 0.0 ± 0.0 b %. For the same compound, the Percent survival ([1]; filter paper 1000 mg/l, Day 1, Soldier) was 1.67 ± 1.67 b %, the Percent survival ([1]; filter paper 1000 mg/l, Day 1, Worker) was 6.67 ± 6.67 b % and the Percent survival ([1]; filter paper 1000 mg/l, Day 5, Soldier) was 0.0 ± 0.0 b %. It also gave a Percent survival ([1]; filter paper 1000 mg/l, Day 5, Worker) of 0.0 ± 0.0 c %, a Percent survival ([1]; filter paper 1000 mg/l, Day 10, Soldier) of 0.0 ± 0.0 c % and a Percent survival ([1]; filter paper 1000 mg/l, Day 10, Worker) of 0.0 ± 0.0 b %. For the same compound, the “concentration acutely toxic when applied to a sole food source” value ([1]; sole food source) was 0.1 % (wt/v), the “concentration at which termites showed decreased survival” value ([1]; sole food source impregnated (filter paper or wood slice)) was 1000 mg/L and the “Survival (mean % ± SE) day 12” value ([2]; 4.16 mg/kg) was 48.75 ± 2.78 ab %. For the same compound, the “Survival (mean % ± SE) day 12” value ([2]; 8.33 mg/kg) was 36.00 ± 4.76 bc %, the “Survival (% ± SE) day 12” value ([2]; 8.75 mg/kg) was 61.60 ± 2.79 abc % and the “Survival (mean % ± SE) day 12” value ([2]; 16.67 mg/kg) was 35.25 ± 3.47 bc %. For the same compound, the “Survival (% ± SE) day 12” value ([2]; 17.5 mg/kg) was 67.20 ± 1.36 ab %, the “Survival (mean % ± SE) day 12” value ([2]; 33.33 mg/kg) was 17.33 ± 7.22 c % and the “Survival (% ± SE) day 12” value ([2]; 35.0 mg/kg) was 59.0 ± 7.72 bc %. For the same compound, the “Survival (mean % ± SE) day 12” value ([2]; 66.67 mg/kg) was 24.25 ± 11.99 c %, the “Survival (% ± SE) day 12” value ([2]; 70.0 mg/kg) was 53.0 ± 2.34 c % and the “Survival (% ± SE) day 12” value ([2]; 140.0 mg/kg) was 51.60 ± 3.97 c %. For the same compound, the “concentration with significantly reduced survival after 12 days” value ([2]; colony E) was at least 35.0 mg/kg sand, the “concentration significantly reducing overall tunneling (treated plus untreated sand)” value ([2]; colony E, 12 days) was at least 35.0 mg/kg and the “concentration with significant reduction in consumption of filter paper on treated sand” value ([2]; colony E, 12 days) was at least 8.75 mg/kg. For the same compound, the “concentration with significantly less total food consumption” value ([2]; colony E, only this treatment) was 140 mg/kg, the “concentration with significant reduction in tunneling activity in treated sand” value ([2]; colony E, up to 12 days) was at least 17.5 mg/kg and the “concentration with significantly reduced survival on day 12” value ([2]; colony WB) was at least 8.33 mg/kg. For the same compound, the “concentration with significantly reduced consumption of wood slices on treated sand” value ([2]; colony WB, 12 days) was at least 8.33 mg/kg and the “concentration with significant difference in tunneling activity between untreated and treated sand” value ([2]; colony WB, days 2, 3, 4, 7) was at least 16.67 mg/kg sand.
